Results published in paper PMC5360062, “Comparative insights into the saccharification potentials of a relatively unexplored but robust Penicillium funiculosum glycoside hydrolase 7 cellobiohydrolase” (Biotechnology for Biofuels, 2017).

Target: T1, PfCBH1 (GH7 cellobiohydrolase 1)
T1 construct: natively purified enzyme from the secretome
Assay: inhibition of pNPL hydrolysis by purified enzyme, Michaelis-Menten/Lineweaver-Burk; IC50 […]
Type: biochemical, Talaromyces funiculosus (Penicillium funiculosum)

Ki: 760 ± 54 µM
Compound: OC[C@H]1O[C@@H](O[C@H]2[C@H](O)[C@@H](O)C(O)O[C@@H]2CO)[C@H](O)[C@@H](O)[C@@H]1O (stereo partly shown) [G2, cellobiose]
